How the values were obtained:
Conditions in all cases: binder
[1] = target: T1, NEK2 (Homo sapiens, UniProt P51955)
T1 sequence (P51955 1-445): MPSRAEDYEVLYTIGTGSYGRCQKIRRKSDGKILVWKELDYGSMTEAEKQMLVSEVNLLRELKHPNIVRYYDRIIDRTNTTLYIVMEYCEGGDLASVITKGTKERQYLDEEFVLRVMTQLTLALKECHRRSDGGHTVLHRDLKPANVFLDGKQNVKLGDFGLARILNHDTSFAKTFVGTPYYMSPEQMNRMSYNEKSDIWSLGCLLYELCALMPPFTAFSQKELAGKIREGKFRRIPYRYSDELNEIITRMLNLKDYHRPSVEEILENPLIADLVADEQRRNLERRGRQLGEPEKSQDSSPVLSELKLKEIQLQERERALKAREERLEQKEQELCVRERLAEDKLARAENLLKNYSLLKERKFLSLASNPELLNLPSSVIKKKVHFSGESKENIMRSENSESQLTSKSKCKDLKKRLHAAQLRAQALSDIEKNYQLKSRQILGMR

[2] = target: T2, CASK (Homo sapiens, UniProt O14936)
T2 sequence (O14936 1-926): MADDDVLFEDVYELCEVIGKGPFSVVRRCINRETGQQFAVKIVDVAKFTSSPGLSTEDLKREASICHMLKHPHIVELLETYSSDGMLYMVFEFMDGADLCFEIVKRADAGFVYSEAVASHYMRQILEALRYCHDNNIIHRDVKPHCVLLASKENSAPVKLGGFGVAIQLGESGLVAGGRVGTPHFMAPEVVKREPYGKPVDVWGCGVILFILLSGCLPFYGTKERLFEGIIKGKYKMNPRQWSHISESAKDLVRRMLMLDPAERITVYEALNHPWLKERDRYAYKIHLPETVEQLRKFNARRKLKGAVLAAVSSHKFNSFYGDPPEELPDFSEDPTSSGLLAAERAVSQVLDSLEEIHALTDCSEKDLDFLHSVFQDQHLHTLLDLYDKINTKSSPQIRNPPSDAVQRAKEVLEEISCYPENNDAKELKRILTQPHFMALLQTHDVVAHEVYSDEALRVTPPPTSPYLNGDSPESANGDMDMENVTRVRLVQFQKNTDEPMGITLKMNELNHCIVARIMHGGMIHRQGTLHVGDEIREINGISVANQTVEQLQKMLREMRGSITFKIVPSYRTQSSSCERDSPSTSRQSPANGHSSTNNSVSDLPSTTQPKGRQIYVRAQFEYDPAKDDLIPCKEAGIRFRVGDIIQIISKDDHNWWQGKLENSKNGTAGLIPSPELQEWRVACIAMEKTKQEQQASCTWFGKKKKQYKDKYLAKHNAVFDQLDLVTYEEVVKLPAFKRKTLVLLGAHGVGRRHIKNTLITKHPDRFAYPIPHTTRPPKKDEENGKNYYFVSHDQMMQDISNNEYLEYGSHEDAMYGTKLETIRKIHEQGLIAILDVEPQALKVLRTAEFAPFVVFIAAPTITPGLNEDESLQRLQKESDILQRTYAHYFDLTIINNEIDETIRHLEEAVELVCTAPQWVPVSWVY

[3] = target: ABL1 (Homo sapiens, UniProt P00519)
Chain of ABL1 (P00519 whole entry): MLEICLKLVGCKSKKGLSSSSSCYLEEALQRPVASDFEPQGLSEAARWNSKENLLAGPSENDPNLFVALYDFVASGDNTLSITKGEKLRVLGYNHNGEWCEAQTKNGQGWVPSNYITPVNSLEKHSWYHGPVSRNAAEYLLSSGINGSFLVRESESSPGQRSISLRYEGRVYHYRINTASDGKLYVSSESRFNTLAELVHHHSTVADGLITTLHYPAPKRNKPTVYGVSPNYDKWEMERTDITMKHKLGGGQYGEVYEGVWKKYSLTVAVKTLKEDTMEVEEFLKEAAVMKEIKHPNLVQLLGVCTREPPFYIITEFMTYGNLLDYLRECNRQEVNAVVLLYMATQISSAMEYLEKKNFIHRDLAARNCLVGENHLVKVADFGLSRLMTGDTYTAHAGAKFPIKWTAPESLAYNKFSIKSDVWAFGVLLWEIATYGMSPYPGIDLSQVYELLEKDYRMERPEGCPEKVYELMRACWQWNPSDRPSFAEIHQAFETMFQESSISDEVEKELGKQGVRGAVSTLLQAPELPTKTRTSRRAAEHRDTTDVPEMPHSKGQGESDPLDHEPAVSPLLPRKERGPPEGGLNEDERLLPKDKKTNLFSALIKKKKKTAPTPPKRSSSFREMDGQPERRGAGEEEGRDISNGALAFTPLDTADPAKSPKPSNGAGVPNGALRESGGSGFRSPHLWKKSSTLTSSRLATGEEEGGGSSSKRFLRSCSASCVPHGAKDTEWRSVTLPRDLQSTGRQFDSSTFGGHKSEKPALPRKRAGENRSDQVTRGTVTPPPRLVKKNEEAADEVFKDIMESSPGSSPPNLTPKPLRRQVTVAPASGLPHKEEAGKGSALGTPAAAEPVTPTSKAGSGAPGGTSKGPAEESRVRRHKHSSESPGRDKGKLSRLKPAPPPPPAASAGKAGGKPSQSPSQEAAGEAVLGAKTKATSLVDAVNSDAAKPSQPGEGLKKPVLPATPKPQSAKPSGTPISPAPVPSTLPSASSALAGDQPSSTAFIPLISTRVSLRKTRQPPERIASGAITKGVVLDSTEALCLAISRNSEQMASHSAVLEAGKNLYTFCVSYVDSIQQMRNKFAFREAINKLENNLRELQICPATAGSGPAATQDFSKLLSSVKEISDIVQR

[4] = target: T3, MAP2K6 (Homo sapiens, UniProt P52564)
T3 sequence (P52564 1-334): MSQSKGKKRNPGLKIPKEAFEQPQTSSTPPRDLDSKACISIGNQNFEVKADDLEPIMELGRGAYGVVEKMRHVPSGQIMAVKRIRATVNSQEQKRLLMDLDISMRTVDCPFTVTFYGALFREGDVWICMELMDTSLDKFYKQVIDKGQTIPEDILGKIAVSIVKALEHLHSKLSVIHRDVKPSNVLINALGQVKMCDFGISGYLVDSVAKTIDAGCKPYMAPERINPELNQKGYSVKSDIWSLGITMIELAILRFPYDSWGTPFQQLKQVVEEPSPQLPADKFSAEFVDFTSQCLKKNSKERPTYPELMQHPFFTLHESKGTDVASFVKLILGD

[5] = target: T4, TTK (Homo sapiens, UniProt P33981)
T4 sequence (P33981 1-857): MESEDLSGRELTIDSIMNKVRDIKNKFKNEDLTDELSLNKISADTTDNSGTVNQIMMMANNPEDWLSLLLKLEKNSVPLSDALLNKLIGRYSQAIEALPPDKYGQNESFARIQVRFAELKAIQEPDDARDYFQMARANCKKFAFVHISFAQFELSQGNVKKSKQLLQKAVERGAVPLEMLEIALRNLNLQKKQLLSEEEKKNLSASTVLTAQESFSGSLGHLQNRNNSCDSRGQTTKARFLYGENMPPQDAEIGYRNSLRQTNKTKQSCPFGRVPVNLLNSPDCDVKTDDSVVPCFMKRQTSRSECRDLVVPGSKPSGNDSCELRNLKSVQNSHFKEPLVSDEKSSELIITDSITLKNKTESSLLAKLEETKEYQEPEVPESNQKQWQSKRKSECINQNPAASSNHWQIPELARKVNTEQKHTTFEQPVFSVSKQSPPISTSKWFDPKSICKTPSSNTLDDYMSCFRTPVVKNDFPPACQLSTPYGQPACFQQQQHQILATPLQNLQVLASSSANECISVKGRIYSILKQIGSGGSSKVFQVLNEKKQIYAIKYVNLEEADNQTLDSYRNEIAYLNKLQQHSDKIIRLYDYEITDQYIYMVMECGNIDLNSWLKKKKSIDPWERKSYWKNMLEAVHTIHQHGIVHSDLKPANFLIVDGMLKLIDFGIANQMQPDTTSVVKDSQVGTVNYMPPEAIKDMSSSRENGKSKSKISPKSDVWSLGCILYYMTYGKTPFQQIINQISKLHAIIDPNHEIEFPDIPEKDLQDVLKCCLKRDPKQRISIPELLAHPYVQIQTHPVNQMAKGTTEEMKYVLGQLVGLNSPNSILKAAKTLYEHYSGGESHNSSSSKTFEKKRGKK

Cc1cccc(-c2ccc(-c3cc4cnc(Nc5ccc(F)c(CO)c5)nc4n(CCCCN)c3=O)c(Cl)c2)n1 [compound 33, 8-(4-Aminobutyl)-6-(2-chloro-4-(6-methylpyridin-2-yl)phenyl)-2-((4-fluoro-3-(hydroxymethyl)phenyl)amino)pyrido[2,3-d]pyrimidin-7(8H)-one]
dTm 33 [1]: 10.6 °C
dTm 33 [2]: 0.2 °C
dTm 33 [3]: 10.6 °C
dTm 33 [4]: 10.2 °C
dTm 33 [5]: 1.3 °C

COc1ccc(O)c(Nc2ncc3cc(-c4ccc(-c5cccc(C)n5)cc4Cl)c(=O)n(CCCCN)c3n2)c1 [compound 34, 8-(4-Aminobutyl)-6-(2-chloro-4-(6-methylpyridin-2-yl)phenyl)-2-((2-hydroxy-5-methoxy-phenyl)amino)pyrido[2,3-d]pyrimidin-7(8H)-one]
dTm 34 [1]: 8.4 °C
dTm 34 [2]: -0.2 °C
dTm 34 [3]: 5.2 °C
dTm 34 [4]: 5.4 °C
dTm 34 [5]: 2.9 °C

COc1cc(N2CCOCC2)ccc1Nc1ncc2cc(-c3ccc(-c4cccc(C)n4)cc3Cl)c(=O)n(CCCCN)c2n1 [compound 35, 8-(4-Aminobutyl)-6-(2-chloro-4-(6-methylpyridin-2-yl)phenyl)-2-((2-methoxy-4-morpholino-phenyl)amino)pyrido[2,3-d]pyrimidin-7(8H)-one]
dTm 35 [1]: 10.6 °C
dTm 35 [2]: 0.0 °C
dTm 35 [3]: 5.8 °C
dTm 35 [4]: 6.8 °C
dTm 35 [5]: 7.8 °C

COc1cc(N2CCN(C)CC2)ccc1Nc1ncc2cc(-c3ccc(-c4cccc(C)n4)cc3Cl)c(=O)n(CCCCN)c2n1 [compound 36, 8-(4-Aminobutyl)-6-(2-chloro-4-(6-methylpyridin-2-yl)phenyl)-2-((2-methoxy-4-(4-methylpiperazin-1-yl)phenyl)amino)pyrido[2,3-d]pyrimidin-7(8H)-one]
dTm 36 [1]: 9.2 °C
dTm 36 [2]: -0.4 °C
dTm 36 [3]: 5.0 °C
dTm 36 [4]: 4.4 °C
dTm 36 [5]: 4.3 °C
